In patent publication US7803374B2, “Targeted atherosclerosis treatment” (Barnes-Jewish Hospital, priority 2004, dated 2010):
Read-outs that look alike come from different tables or passages of the source.

How the values were obtained:
[1] = system: Apo E−/− mice; conditions: cited from earlier work; for foam cell deposition or fibromuscular lesion development: early atherogenesis; for effectiveness in later treatment: later periods of treatment (32 to 48 weeks)
[2] = high dose; cited from earlier work
[3] = In vitro dissolution: release of fumagillin from nanoparticles by dialysis; type: physicochemical; conditions: generally, due to hydrophobic nature
Protocol: Fumagillin nanoparticle emulsions (250 μl) were dialyzed in 60,000 MW cutoff dialysis tubing against 3.5 ml of releasing medium (0.9% NaCl, 0.2 mg/ml human serum albumin and 0.05% sodium azide) and continuously agitated at 37° C. The releasing medium was replaced daily and analyzed for released fumagillin concentration. Fumagillin was analyzed by reverse-phase HPLC (Waters Corporation). Chromatography was performed using a Waters Novapak C18, 60 Å, 4 μm reversed-phase column (3.9×150 mm) with an isocratic 50% acetonitrile/0.05% of phosphoric acid mobile phase (1 ml/min at ambient temperature).

[4] = treated for 4 months (20 to 36 weeks)

Molecule	intimal vessels and atheroma expansion ([1]; 30 mg per kg every other day for 13 weeks)	foam cell deposition or fibromuscular lesion development [1]	effectiveness in later treatment [1]	intimal vessels and atheroma expansion [1, 4]	side effects [2]	fumagillin released (general statement) [3]
CO[C@@H]1[C@H](OC(=O)NC(=O)CCl)CC[C@]2(CO2)[C@H]1[C@@]1(C)O[C@@H]1CC=C(C)C [TNP-470]	reduction in intimal vessels and diminished atheroma expansion	Neither endostatin nor TNP-470 altered	less effective	reduced number of intimal vessels and diminished atheroma expansion	serious side effects such as neurocognitive toxicity	
CO[C@@H]1[C@H](OC(=O)/C=C/C=C/C=C/C=C/C(=O)O)CC[C@]2(CO2)[C@H]1[C@@]1(C)O[C@@H]1CC=C(C)C [fumagillin]						< 10%
endostatin: anti-angiogenic agent (protein, UniProt P39060 1572-1754, looked up, Endostatin, anti-angiogenic agent) Endostatin: HSHRDFQPVLHLVALNSPLSGGMRGIRGADFQCFQQARAVGLAGTFRAFLSSRLQDLYSIVRRADRAAVPIVNLKDELLFPSWEALFSGSEGPLKPGARIFSFDGKDVLRHPTWPQKSVWHGSDPNGRRLTESYCETWRTEAPSATGQASSLLGGRLLGQSAASCHHAYIVLCIENSFMTASK		Neither endostatin nor TNP-470 altered	less effective	reduced number of intimal vessels and diminished atheroma expansion		
